One data set deals with MIN6 cells. The data set can be described thus: Cytotoxicity / growth of MIN6 cells (FIG. 1A). The conditions noted are these: 100 μmol/L. In kind it is cell-based, mouse.
For another data set, the system named is STZ-induced T2DM rats. Briefly: Oral glucose tolerance test (OGTT) in T2DM rats. It is filed as in vivo, rat. The conditions noted are these: artificially induced T2DM rats. As to the method:
150 male SD rats, housed in cages in a clean constant temperature (23±2° C.) and humidity (55±10%) animal house, were manually adjusted on a daily 12 h/12 h diurnal light cycle with free access to water. After 3 days of adaptive feeding, 150 rats were randomly divided into normal and model groups. The normal (Con, n=15) group of rats remained on raw chow and the model group (n=135) of rats were given high fat high sugar chow. All rats were fed twice daily and the amount of feed was adjusted as needed to ensure adequate feed. After 8 weeks of group feeding, the model group rats were given an intraperitoneal injection of 25 mg/kg STZ solution with a 12 h fast prior to injection. After injection, feeding was continued as in the original method, blood was taken from the tail vein at 72 h for blood glucose measurement, and rats with fasting blood glucose levels ≥11.1 mmol/L on different days were screened for successful artificial induction of T2DM and administered in groups for the next experiment. 135 rats with successful modeling were randomly divided into 9 groups: […] […] Relevant indicators of lipid metabolism were measured after the end of the study. At the final week of the Oral Glucose Tolerance Test (OGTT) test, each group of rats was fasted from water 16 h after gavage administration and the fasting blood glucose value (as 0 min) was measured for each rat. […]

In a further data set the test system is GPR40. The data set can be described thus: Insulin secretion in MIN6 cells with GPR40 inhibitor GW1100. It is filed as cell-based, mouse. The conditions noted are these: 10 μmol/L GW1100 + 10 μmol/L ADD-16, 24 h. As to the method:
MIN6 cells were seeded in 24-well plates and cultured as described in step 2.1 to a cell confluency of more than 80% and administrated in the following groups, with 12 replicates per group: (1) normal control group (Con): cultured with blank 1640 medium; (2) GW9508 group: 1 μmol/L GW9508 intervention for 24 h; (3) GW1100 group: 10 μmol/L GW1100 intervention for 24 h; (4) ADD-16 group (ADD): 10 μmol/L ADD-16 intervention for 24 h; (5) GW1100+GW9508 group: 10 μmol/L GW1100+1 μmol/L GW9508 intervention for 24 h; (6) GW1100+ADD-16 group: 10 μmol/L GW1100+10 μmol/LADD-16 intervention for 24 h. After the group administration, the medium was aspirated and washed 2 times with a KRB buffer without sugar, followed by the addition of the KRB buffer without sugar. After incubation at 37° C. for 30 min, the buffer was aspirated and each group was divided into two, i.e., 6 replicates for each group, and KRB buffers containing 2.8 mmol/L and 16.7 mmol/L glucose was added respectively. After incubation at 37° C. for 1 h, all the medium in the wells was aspirated and centrifuged at 2000 rmp/min for 20 min, and the supernatant was collected and stored at −20° C. The insulin content was measured for each group.

As for `CC1(C)CC(=O)C2=C(C1)NC1=C(C(=O)CC(C)(C)C1)C2c1ccc(OCc2ccc(C(=O)O)cc2)c(Br)c1` [ADD-16], the “effect on MIN6 cell growth (in words)” value in the data set with MIN6 cells is “inhibitory effect on MIN6 cell growth”. Further, the “glucose tolerance (OGTT, in words)” value in the data set with STZ-induced T2DM rats is listed as “increase glucose tolerance”. Also, in the data set with GPR40, the “insulin secretion in GW1100-treated MIN6 cells (in words)” value is on record as “increase insulin secretion in MIN6 cells treated with the GPR40 inhibitor GW1100”.

(Values after patent publication US20230124720A1, “APPLICATION OF ACRIDINEDIONE COMPOUND IN PREPARATION OF ANTI-DIABETIC DRUGS” (THE FOURTH MILITARY MEDICAL UNIVERSITY, priority 2020, published 2023).)
